The CheMixHub viscosity set

Test: xn = mol fraction of the nth substance listed

O=C1CCCCC1 + CC(C)CC(C)(C)C
viscosity [mPa·s]
Details | 293.15 K | 298.15 K | 303.15 K | 308.15 K | 313.15 K
101 kPa, x1 = 0.0911 | 0.5562 | 0.5245 | 0.497 | 0.4702 | 0.4465
101 kPa, x1 = 0.127 | – | 0.551 | – | – | –
101 kPa, x1 = 0.1761 | 0.6094 | 0.5717 | 0.5392 | 0.5101 | 0.4831
101 kPa, x1 = 0.1855 | – | 0.575 | – | – | –
101 kPa, x1 = 0.3071 | – | 0.643 | – | – | –
101 kPa, x1 = 0.3304 | 0.7148 | 0.6685 | 0.6303 | 0.5925 | 0.5593
101 kPa, x1 = 0.4005 | 0.7809 | 0.729 | 0.6869 | 0.643 | 0.6047
101 kPa, x1 = 0.4354 | – | 0.741 | – | – | –
101 kPa, x1 = 0.5171 | – | 0.836 | – | – | –
101 kPa, x1 = 0.5288 | 0.9379 | 0.8709 | 0.8135 | 0.7598 | 0.7134
101 kPa, x1 = 0.5877 | 1.037 | 0.9596 | 0.8935 | 0.8326 | 0.7791
101 kPa, x1 = 0.6149 | – | 0.969 | – | – | –
101 kPa, x1 = 0.6961 | 1.231 | 1.132 | 1.046 | 0.969 | 0.9139
101 kPa, x1 = 0.7054 | – | 1.114 | – | – | –
101 kPa, x1 = 0.7937 | 1.479 | 1.353 | 1.248 | 1.152 | 1.07
101 kPa, x1 = 0.7982 | – | 1.317 | – | – | –
101 kPa, x1 = 0.8836 | – | 1.526 | – | – | –
101 kPa, x1 = 0.9232 | 1.947 | 1.771 | 1.628 | 1.49 | 1.368
101.33 kPa, x1 = 0.103 | – | 0.514 | 0.485 | 0.458 | –
101.33 kPa, x1 = 0.2023 | – | 0.563 | 0.53 | 0.501 | –
101.33 kPa, x1 = 0.3 | – | 0.626 | 0.589 | 0.556 | –
101.33 kPa, x1 = 0.4044 | – | 0.717 | 0.667 | 0.623 | –
101.33 kPa, x1 = 0.5041 | – | 0.808 | 0.751 | 0.702 | –
101.33 kPa, x1 = 0.6035 | – | 0.932 | 0.865 | 0.805 | –
101.33 kPa, x1 = 0.7029 | – | 1.104 | 1.016 | 0.953 | –
101.33 kPa, x1 = 0.8014 | – | 1.309 | 1.199 | 1.106 | –
101.33 kPa, x1 = 0.9008 | – | 1.58 | 1.44 | 1.322 | –

O=C1CCCCC1 + CCC(C)=O
298.15 K, 101 kPa
Details | viscosity [mPa·s]
x1 = 0.0755 | 0.45
x1 = 0.1552 | 0.523
x1 = 0.2395 | 0.576
x1 = 0.3288 | 0.655
x1 = 0.4235 | 0.739
x1 = 0.5243 | 0.868
x1 = 0.6316 | 1.03
x1 = 0.7461 | 1.258
x1 = 0.8686 | 1.587

O=C1CCCCC1 + COc1ccccc1
viscosity [mPa·s], 101.33 kPa
Details | x1 = 0.1002 | x1 = 0.2031 | x1 = 0.303 | x1 = 0.402 | x1 = 0.5032 | x1 = 0.6017 | x1 = 0.7 | x1 = 0.7976 | x1 = 0.8978
298.15 K | 1.048 | 1.096 | 1.131 | 1.194 | 1.245 | 1.331 | 1.44 | 1.558 | 1.732
303.15 K | 0.968 | 1.004 | 1.044 | 1.092 | 1.151 | 1.22 | 1.304 | 1.421 | 1.578
308.15 K | 0.905 | 0.93 | 0.966 | 1.012 | 1.06 | 1.127 | 1.207 | 1.306 | 1.444
